# US11857519B2, “Compounds and methods for the targeted degradation of enhancer of zeste homolog 2 polypeptide” (Arvinas Operations, Inc., priority 2016, dated 2024)
# Target: T1, EZH2 (Homo sapiens, UniProt Q15910)
# T1 construct: Protocol of the Cellular Assay of Target Protein Degradation (VCaP Cells, ELISA); endogenous in cells; host or cells: VCaP cells
# Assay: Cellular assay of target protein degradation (VCaP cells, ELISA)
# Assay type: cell-based
# Settings: 4 hours, protein degradation range at indicated concentration (relative to DMSO control)
# Procedure, shortened: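 EZH2 level measured by sandwich ELISA (TMB, A450 minus A562 background) in lysates of VCaP cells. Cells had been cultured at least 3 days in 5% CSS RPMI before 4 h compound exposure in 0.1% DMSO.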
# T1 sequence (Q15910 whole entry): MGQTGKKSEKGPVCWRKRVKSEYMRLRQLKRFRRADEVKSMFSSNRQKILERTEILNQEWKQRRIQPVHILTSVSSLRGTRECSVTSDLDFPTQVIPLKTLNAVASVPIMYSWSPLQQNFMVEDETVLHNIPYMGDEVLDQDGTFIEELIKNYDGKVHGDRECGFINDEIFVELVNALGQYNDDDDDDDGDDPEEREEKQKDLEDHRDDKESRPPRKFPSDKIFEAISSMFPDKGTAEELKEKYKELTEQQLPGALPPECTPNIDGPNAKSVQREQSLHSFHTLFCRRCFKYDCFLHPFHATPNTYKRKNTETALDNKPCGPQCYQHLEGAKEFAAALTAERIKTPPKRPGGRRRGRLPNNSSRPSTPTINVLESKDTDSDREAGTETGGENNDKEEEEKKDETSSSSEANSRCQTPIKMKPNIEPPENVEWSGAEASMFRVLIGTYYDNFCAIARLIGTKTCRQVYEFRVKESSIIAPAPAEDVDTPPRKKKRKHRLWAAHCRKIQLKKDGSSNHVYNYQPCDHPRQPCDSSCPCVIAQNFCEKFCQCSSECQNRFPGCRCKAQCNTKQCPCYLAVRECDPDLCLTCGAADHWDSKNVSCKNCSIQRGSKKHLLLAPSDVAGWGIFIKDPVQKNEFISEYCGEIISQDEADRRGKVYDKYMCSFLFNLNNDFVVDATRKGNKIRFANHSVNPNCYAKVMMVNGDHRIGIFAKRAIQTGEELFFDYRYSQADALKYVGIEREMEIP
# T1 sequence (O75530 whole entry partner): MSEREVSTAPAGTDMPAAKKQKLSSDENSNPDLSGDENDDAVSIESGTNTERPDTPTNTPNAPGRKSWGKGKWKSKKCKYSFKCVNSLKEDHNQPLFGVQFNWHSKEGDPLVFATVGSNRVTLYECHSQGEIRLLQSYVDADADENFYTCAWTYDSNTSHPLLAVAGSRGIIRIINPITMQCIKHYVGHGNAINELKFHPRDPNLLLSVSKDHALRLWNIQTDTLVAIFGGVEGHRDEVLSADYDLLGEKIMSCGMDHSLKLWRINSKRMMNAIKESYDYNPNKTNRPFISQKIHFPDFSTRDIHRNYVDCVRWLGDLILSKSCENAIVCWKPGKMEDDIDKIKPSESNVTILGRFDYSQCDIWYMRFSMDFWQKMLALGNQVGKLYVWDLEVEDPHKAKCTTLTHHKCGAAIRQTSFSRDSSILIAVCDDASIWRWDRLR
# T1 sequence (Q15022 whole entry partner): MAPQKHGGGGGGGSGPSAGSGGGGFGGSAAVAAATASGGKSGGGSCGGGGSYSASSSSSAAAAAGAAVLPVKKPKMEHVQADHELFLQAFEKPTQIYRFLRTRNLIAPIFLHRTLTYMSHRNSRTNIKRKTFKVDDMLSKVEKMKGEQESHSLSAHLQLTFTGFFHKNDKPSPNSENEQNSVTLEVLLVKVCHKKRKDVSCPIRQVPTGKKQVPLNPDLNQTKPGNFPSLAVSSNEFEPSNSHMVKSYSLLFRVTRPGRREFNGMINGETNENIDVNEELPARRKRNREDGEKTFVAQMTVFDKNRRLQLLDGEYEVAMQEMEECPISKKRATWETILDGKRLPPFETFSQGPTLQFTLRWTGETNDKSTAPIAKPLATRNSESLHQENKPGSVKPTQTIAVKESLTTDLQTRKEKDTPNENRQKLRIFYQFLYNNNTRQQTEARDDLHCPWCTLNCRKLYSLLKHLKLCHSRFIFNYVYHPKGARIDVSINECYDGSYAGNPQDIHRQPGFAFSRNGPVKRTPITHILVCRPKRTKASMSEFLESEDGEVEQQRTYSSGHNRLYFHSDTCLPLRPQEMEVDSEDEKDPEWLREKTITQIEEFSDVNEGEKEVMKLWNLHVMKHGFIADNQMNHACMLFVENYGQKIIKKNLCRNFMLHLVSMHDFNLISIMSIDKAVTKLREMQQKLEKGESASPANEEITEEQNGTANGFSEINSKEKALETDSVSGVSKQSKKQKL
smiles,measurement,value
"CCN(c1cc(-c2ccc(OCCCOc3ccc4c(c3)C(=O)N([C@H](C(=O)N3C[C@H](O)C[C@H]3C(=O)N[C@@H](C)c3ccc(-c5scnc5C)cc3)C(C)C)C4)cc2)cc(C(=O)NCc2c(C)cc(C)[nH]c2=O)c1C)C1CCOCC1 [Compound 98, (2S,4R)-1-((S)-2-(6-(3-((3′-(((4,6-dimethyl-2-oxo-1,2-dihydropyridin-3-yl)methyl)carbamoyl)-5′-(ethyl(tetrahydro-2H-pyran-4-yl)amino)-4′-methyl-[1,1′-biphenyl]-4-yl)oxy)propoxy)-1-oxoisoindolin-2-yl)-3-methylbutanoyl)-4-hydroxy-N-((S)-1-(4-(4-methylthiazol-5-yl)phenyl)ethyl)pyrrolidine-2-carboxamide]",percent target protein degradation class,B (B = degradation between 30% and 60%)
"CCN(c1cc(-c2ccc(COCCOc3ccc4c(c3)C(=O)N([C@H](C(=O)N3C[C@H](O)C[C@H]3C(=O)N[C@@H](C)c3ccc(-c5scnc5C)cc3)C(C)C)C4)cc2)cc(C(=O)NCc2c(C)cc(C)[nH]c2=O)c1C)C1CCOCC1 [Compound 99, (2S,4R)-1-((S)-2-(6-(2-((3′-((4,6-dimethyl-2-oxo-1,2-dihydropyridin-3-yl)methylcarbamoyl)-5′-(ethyl(tetrahydro-2H-pyran-4-yl)amino)-4′-methylbiphenyl-4-yl)methoxy)ethoxy)-1-oxoisoindolin-2-yl)-3-methylbutanoyl)-4-hydroxy-N—((S)-1-(4-(4-methylthiazol-5-yl)phenyl)ethyl)pyrrolidine-2-carboxamide]",percent target protein degradation class,A (A = degradation more than 60%)
CCN(c1cc(-c2ccc(OCCOc3ccc4c(c3)C(=O)N([C@H](C(=O)N3C[C@H](O)C[C@H]3C(=O)N[C@@H](C)c3ccc(-c5scnc5C)cc3)C(C)C)C4)cc2)cc(C(=O)NCc2c(C)cc(C)[nH]c2=O)c1C)C1CCOCC1 [Compound 100],percent target protein degradation class,A (A = degradation more than 60%)
"CCN(c1cc(-c2ccc(OCCCCOc3ccc4c(c3)C(=O)N([C@@H](C(=O)N3C[C@H](O)C[C@H]3C(=O)N[C@@H](C)c3ccc(-c5scnc5C)cc3)C(C)C)C4)cc2)cc(C(=O)NCc2c(C)cc(C)[nH]c2=O)c1C)C1CCOCC1 [Compound 101, (2S,4R)-1-((R)-2-(6-(4-((3′-(((4,6-dimethyl-2-oxo-1,2-dihydropyridin-3-yl)methyl)carbamoyl)-5′-(ethyl(tetrahydro-2H-pyran-4-yl)amino)-4′-methyl-[1,1′-biphenyl]-4-yl)oxy)butoxy)-1-oxoisoindolin-2-yl)-3-methylbutanoyl)-4-hydroxy-N-((S)-1-(4-(4-methylthiazol-5-yl)phenyl)ethyl)pyrrolidine-2-carboxamide]",percent target protein degradation class,B (B = degradation between 30% and 60%)
CCN(c1cc(-c2ccc(OCCCCOc3ccc4c(c3)C(=O)N([C@H](C(=O)N3C[C@H](O)C[C@H]3C(=O)N[C@@H](C)c3ccc(-c5scnc5C)cc3)C(C)C)C4)cc2)cc(C(=O)NCc2c(C)cc(C)[nH]c2=O)c1C)C1CCOCC1 [Compound 102],percent target protein degradation class,B (B = degradation between 30% and 60%)
"CCN(c1cc(-c2ccc(OCCCCOc3ccc4c(c3)C(=O)N(C(C(=O)N3C[C@H](O)C[C@H]3C(=O)N[C@@H](C)c3ccc(-c5scnc5C)cc3)C(C)C)C4)cc2)cc(C(=O)NCc2c(C)cc(C)[nH]c2=O)c1C)C1CCOCC1 (stereo partly drawn) [Compound 103, (2S,4R)-1-(2-(6-(4-((3′-(((4,6-dimethyl-2-oxo-1,2-dihydropyridin-3-yl)methyl)carbamoyl)-5′-(ethyl(tetrahydro-2H-pyran-4-yl)amino)-4′-methyl-[1,1′-biphenyl]-4-yl)oxy)butoxy)-1-oxoisoindolin-2-yl)-3-methylbutanoyl)-4-hydroxy-N-((S)-1-(4-(4-methylthiazol-5-yl)phenyl)ethyl)pyrrolidine-2-carboxamide]",percent target protein degradation class,B (B = degradation between 30% and 60%)
"CCN(c1cc(-c2ccc(OCCCCCOc3cc(C(C(=O)N4C[C@H](O)C[C@H]4C(=O)N[C@@H](C)c4ccc(-c5scnc5C)cc4)C(C)C)on3)cc2)cc(C(=O)NCc2c(C)cc(C)[nH]c2=O)c1C)C1CCOCC1 (stereo partly drawn) [Compound 104, (2S,4R)-1-(2-(3-(5-(3′-((4,6-dimethyl-2-oxo-1,2-dihydropyridin-3-yl)methylcarbamoyl)-5′-(ethyl(tetrahydro-2H-pyran-4-yl)amino)-4′-methylbiphenyl-4-yloxy)pentyloxy)isoxazol-5-yl)-3-methylbutanoyl)-4-hydroxy-N—((S)-1-(4-(4-methylthiazol-5-yl)phenyl)ethyl)pyrrolidine-2-carboxamide]",percent target protein degradation class,A (A = degradation more than 60%)
CCN(c1cc(-c2ccc(OCCOCCOc3cc(C(C(=O)N4C[C@H](O)C[C@H]4C(=O)N[C@@H](C)c4ccc(-c5scnc5C)cc4)C(C)C)on3)cc2)cc(C(=O)NCc2c(C)cc(C)[nH]c2=O)c1C)C1CCOCC1 (some centres unmarked) [Compound 105],percent target protein degradation class,A (A = degradation more than 60%)
"CCN(c1cc(-c2ccc(OCCCCCCOc3cc(C(C(=O)N4C[C@H](O)C[C@H]4C(=O)N[C@@H](C)c4ccc(-c5scnc5C)cc4)C(C)C)on3)cc2)cc(C(=O)NCc2c(C)cc(C)[nH]c2=O)c1C)C1CCOCC1 (stereo partly drawn) [Compound 106, (2S,4R)-1-(2-(3-((6-((3′-(((4,6-dimethyl-2-oxo-1,2-dihydropyridin-3-yl)methyl)carbamoyl)-5′-(ethyl(tetrahydro-2H-pyran-4-yl)amino)-4′-methyl-[1,1′-biphenyl]-4-yl)oxy)hexyl)oxy)isoxazol-5-yl)-3-methylbutanoyl)-4-hydroxy-N-((S)-1-(4-(4-methylthiazol-5-yl)phenyl)ethyl)pyrrolidine-2-carboxamide]",percent target protein degradation class,A (A = degradation more than 60%)
"CCN(c1cc(-c2ccc(OCCCCOc3cc(C(C(=O)N4C[C@H](O)C[C@H]4C(=O)N[C@@H](C)c4ccc(-c5scnc5C)cc4)C(C)C)on3)cc2)cc(C(=O)NCc2c(C)cc(C)[nH]c2=O)c1C)C1CCOCC1 (stereo partly drawn) [Compound 107, (2S,4R)-1-(2-(3-(4-(3′-((4,6-dimethyl-2-oxo-1,2-dihydropyridin-3-yl)methylcarbamoyl)-5′-(ethyl(tetrahydro-2H-pyran-4-yl)amino)-4′-methylbiphenyl-4-yloxy)butoxy)isoxazol-5-yl)-3-methylbutanoyl)-4-hydroxy-N—((S)-1-(4-(4-methylthiazol-5-yl)phenyl)ethyl)pyrrolidine-2-carboxamide]",percent target protein degradation class,A (A = degradation more than 60%)
"CCN(c1cc(-c2ccc(OCCOCc3ccc4c(c3)C(=O)N([C@H](C(=O)N3C[C@H](O)C[C@H]3C(=O)N[C@@H](C)c3ccc(-c5scnc5C)cc3)C(C)C)C4)cc2)cc(C(=O)NCc2c(C)cc(C)[nH]c2=O)c1C)C1CCOCC1 [Compound 108, (2S,4R)-1-((S)-2-(6-((2-((3′-(((4,6-dimethyl-2-oxo-1,2-dihydropyridin-3-yl)methyl)carbamoyl)-5′-(ethyl(tetrahydro-2H-pyran-4-yl)amino)-4′-methyl-[1,1′-biphenyl]-4-yl)oxy)ethoxy)methyl)-1-oxoisoindolin-2-yl)-3-methylbutanoyl)-4-hydroxy-N-((S)-1-(4-(4-methylthiazol-5-yl)phenyl)ethyl)pyrrolidine-2-carboxamide]",percent target protein degradation class,B (B = degradation between 30% and 60%)
"CCN(c1cc(-c2ccc(CCOCCOc3cc(C(C(=O)N4C[C@H](O)C[C@H]4C(=O)N[C@@H](C)c4ccc(-c5scnc5C)cc4)C(C)C)on3)cc2)cc(C(=O)NCc2c(C)cc(C)[nH]c2=O)c1C)C1CCOCC1 (stereo partly drawn) [Compound 110, (2S,4R)-1-(2-(3-(2-(2-(3′-(((4,6-dimethyl-2-oxo-1,2-dihydropyridin-3-yl)methyl)carbamoyl)-5′-(ethyl(tetrahydro-2H-pyran-4-yl)amino)-4′-methyl-[1,1′-biphenyl]-4-yl)ethoxy)ethoxy)isoxazol-5-yl)-3-methylbutanoyl)-4-hydroxy-N-((S)-1-(4-(4-methylthiazol-5-yl)phenyl)ethyl)pyrrolidine-2-carboxamide]",percent target protein degradation class,A (A = degradation more than 60%)
"CCN(c1cc(-c2ccc(CCCOCCOc3cc(C(C(=O)N4C[C@H](O)C[C@H]4C(=O)N[C@@H](C)c4ccc(-c5scnc5C)cc4)C(C)C)on3)cc2)cc(C(=O)NCc2c(C)cc(C)[nH]c2=O)c1C)C1CCOCC1 (stereo partly drawn) [Compound 111, (2S,4R)-1-(2-(3-(2-(3-(3′-(((4,6-dimethyl-2-oxo-1,2-dihydropyridin-3-yl)methyl)carbamoyl)-5′-(ethyl(tetrahydro-2H-pyran-4-yl)amino)-4′-methyl-[1,1′-biphenyl]-4-yl)propoxy)ethoxy)isoxazol-5-yl)-3-methylbutanoyl)-4-hydroxy-N-((S)-1-(4-(4-methylthiazol-5-yl)phenyl)ethyl)pyrrolidine-2-carboxamide]",percent target protein degradation class,A (A = degradation more than 60%)
"CCN(c1cc(-c2ccc(CN3CCN(CC4CCN(c5ccc6c(c5)C(=O)N(C5CCC(=O)NC5=O)C6=O)CC4)CC3)cc2)cc(C(=O)NCc2c(C)cc(C)[nH]c2=O)c1C)C1CCOCC1 (centres unmarked) [Compound 113, N-((4,6-dimethyl-2-oxo-1,2-dihydropyridin-3-yl)methyl)-4′-((4-((1-(2-(2,6-dioxopiperidin-3-yl)-1,3-dioxoisoindolin-5-yl)piperidin-4-yl)methyl)piperazin-1-yl)methyl)-5-(ethyl(tetrahydro-2H-pyran-4-yl)amino)-4-methyl-[1,1′-biphenyl]-3-carboxamide]",percent target protein degradation class,B (B = degradation between 30% and 60%)
